{
  "source": "patent US9067894B1",
  "about": "“Compound, composition, and method of activating GIRK potassium channel and use of same for treating conditions of interest” (Vanderbilt University, priority 2013, dated 2015)",
  "key": {"[1]": {"target": "T1, Serotonin 5-HT1A (Homo sapiens, UniProt P08908)", "T1 construct": "Ricerca (contract laboratory that ran the panel)", "T1 sequence (P08908 whole entry)": "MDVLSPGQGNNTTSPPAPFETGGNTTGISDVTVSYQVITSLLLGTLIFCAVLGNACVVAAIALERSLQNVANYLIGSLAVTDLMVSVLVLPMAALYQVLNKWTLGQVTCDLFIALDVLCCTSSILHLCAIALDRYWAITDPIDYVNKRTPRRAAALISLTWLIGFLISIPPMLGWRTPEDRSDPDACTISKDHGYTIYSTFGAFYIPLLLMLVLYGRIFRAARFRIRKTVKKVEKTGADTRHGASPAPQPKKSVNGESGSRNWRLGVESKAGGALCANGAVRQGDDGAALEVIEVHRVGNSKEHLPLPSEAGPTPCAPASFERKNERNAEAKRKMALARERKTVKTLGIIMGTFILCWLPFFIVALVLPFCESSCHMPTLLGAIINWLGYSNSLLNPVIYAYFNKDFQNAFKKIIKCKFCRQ", "test": "Radioligand displacement (Ricerca)", "assay_type": "binding"}, "[2]": {"target": "T2, Bradykinin B1 (Homo sapiens, UniProt P46663)", "T2 construct": "Ricerca", "T2 sequence (P46663 whole entry)": "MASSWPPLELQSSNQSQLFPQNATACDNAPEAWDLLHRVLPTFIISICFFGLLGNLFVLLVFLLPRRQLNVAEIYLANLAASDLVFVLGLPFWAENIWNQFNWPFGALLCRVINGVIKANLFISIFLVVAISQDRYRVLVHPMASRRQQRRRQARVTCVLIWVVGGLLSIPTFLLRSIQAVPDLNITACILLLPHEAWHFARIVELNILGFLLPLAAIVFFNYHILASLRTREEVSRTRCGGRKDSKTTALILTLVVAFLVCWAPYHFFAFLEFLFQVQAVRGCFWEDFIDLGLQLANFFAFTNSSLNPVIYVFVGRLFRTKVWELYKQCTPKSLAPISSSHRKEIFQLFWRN", "test": "Radioligand displacement (Ricerca)", "assay_type": "binding"}, "[3]": {"target": "T3, Histamine H3 (Homo sapiens, UniProt Q9Y5N1)", "T3 construct": "Ricerca (contract laboratory that ran the panel)", "T3 sequence (Q9Y5N1 whole entry)": "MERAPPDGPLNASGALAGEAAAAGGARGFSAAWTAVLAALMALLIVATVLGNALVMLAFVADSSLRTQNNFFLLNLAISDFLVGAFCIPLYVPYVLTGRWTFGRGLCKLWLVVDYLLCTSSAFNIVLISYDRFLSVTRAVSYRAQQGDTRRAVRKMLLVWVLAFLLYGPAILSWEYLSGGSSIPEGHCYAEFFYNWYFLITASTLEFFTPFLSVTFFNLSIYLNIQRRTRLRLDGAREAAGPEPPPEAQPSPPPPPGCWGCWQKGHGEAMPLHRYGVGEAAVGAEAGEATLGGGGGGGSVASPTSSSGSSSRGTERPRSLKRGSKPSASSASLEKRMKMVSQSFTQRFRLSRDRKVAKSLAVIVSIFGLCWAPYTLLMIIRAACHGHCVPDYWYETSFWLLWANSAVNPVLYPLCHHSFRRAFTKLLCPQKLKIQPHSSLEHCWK", "test": "Radioligand displacement (Ricerca)", "assay_type": "binding"}, "[4]": {"test": "Pentylenetetrazol (PTZ)-induced seizure model", "assay_type": "in vivo, mouse", "settings": "mice, i.p.; VU0456810 60 mg/kg, sodium valproate 150 mg/kg; PTZ 40 mg/kg; 20 minute timeframe", "method": "After thirty minutes, PTZ was administered intraperitoneally (i.p., 40 mg/kg). Immediately following administration of PTZ, the amount of time elapsed before the first occurrence of tremors, tonic-clonic seizures, convulsion, and death was recorded. All mice were subject to a 20-minute post-[…] cutoff.\nIn all cases, experiments were conducted in a blind manner with respect to the experimenters. Data were evaluated in Excel using one-tailed, unpaired Student's t-test, assuming populations with unequal variance."}, "[5]": {"target": "T4, Adenosine A2A (Homo sapiens, UniProt P29274)", "T4 construct": "Ricerca (contract assay)", "T4 sequence (P29274 whole entry)": "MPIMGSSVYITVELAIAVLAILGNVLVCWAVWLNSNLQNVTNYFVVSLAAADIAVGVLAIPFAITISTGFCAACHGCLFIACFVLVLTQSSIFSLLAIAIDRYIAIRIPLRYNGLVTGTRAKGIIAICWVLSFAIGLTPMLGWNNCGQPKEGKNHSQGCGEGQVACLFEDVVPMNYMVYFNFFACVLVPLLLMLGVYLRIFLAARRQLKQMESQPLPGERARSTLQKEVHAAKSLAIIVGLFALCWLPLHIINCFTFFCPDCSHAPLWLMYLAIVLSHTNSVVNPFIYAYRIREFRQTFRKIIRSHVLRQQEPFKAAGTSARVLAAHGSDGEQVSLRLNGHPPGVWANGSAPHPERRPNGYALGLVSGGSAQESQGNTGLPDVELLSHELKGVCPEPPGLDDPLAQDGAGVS", "test": "Radioligand displacement (Ricerca)", "assay_type": "binding"}, "[6]": {"target": "T5, GIRK2 (Homo sapiens, UniProt P48051)", "T5 construct": "expressed in transfected cells; host or cells: HEK-293", "T5 sequence (P48051 1-423)": "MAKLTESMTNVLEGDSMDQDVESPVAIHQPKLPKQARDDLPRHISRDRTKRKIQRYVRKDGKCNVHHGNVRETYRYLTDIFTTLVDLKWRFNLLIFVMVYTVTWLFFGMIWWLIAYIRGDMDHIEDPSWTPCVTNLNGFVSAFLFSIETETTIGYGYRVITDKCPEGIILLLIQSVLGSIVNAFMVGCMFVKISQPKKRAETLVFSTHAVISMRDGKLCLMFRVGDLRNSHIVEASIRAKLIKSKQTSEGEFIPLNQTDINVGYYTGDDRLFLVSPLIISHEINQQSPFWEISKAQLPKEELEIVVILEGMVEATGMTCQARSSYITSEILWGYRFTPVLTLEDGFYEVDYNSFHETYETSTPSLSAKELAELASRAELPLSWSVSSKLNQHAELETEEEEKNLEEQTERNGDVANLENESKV", "test": "Whole-cell voltage-clamp, GIRK2-expressing HEK-293 cells", "assay_type": "cell-based", "settings": "cell line GIRK2", "source_text": "Cell Line Construction and Cell Culture. HEK-293 cells co-expressing human GIRK1/2 and rat mGlu8 were generated as previously described (Niswender et al., 2008). A HEK-293 cell line (ATCC, Manassas, Va.) expressing human GIRK1 and human GIRK2 was constructed by transfecting HEK-293 cells with GIRK1 and GIRK2 (Origene, Rockville, Md.) cloned into the pBudCE4.1 vector (Life Technologies, Carlsbad, Calif.) using FuGene 6 (Promega, Madison, Wis.) transfection reagent. […]\nA single-cell suspension of HEK-293 cells stably transfected with the appropriate ion channels were plated into TC-treated 35 mm polystyrene dishes at ˜15% confluence and incubated overnight in a 5% CO2 cell culture incubator at 37° C. […] Whole cell currents were recorded in 20K extracellular solution at −70 mV using a Pico 1 amplifier (Tecella, Foothill Ranch, Calif.) controlled by WINWCP 4.X (University of Strathclyde, Glasgow, Scotland, UK). […] One day after transfection, cells were plate into 35 mm polystyrene dishes, incubated and recorded as described above. […]\nVoltage-clamp data were analyzed by converting current amplitudes to current density by dividing by each cell's membrane capacitance estimated from capacitance compensation. […]"}, "[7]": {"target": "T6, Transporter, SERT (Homo sapiens, UniProt P31645)", "T6 construct": "Ricerca (contract panel)", "T6 sequence (P31645 whole entry)": "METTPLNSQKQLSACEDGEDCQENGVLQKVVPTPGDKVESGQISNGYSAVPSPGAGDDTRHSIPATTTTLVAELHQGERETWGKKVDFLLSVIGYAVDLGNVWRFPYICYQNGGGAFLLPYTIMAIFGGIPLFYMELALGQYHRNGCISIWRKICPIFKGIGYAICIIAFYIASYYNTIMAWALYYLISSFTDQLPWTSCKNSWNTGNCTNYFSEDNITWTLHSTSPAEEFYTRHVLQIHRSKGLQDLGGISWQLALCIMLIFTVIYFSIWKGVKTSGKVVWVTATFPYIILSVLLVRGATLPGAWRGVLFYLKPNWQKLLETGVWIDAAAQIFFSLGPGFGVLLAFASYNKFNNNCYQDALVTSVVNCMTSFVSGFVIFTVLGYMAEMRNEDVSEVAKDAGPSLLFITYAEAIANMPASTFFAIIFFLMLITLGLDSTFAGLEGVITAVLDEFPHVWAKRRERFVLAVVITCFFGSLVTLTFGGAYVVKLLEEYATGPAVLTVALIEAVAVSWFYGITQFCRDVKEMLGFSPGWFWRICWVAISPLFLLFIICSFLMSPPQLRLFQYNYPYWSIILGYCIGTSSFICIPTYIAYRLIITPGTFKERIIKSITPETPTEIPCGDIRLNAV", "test": "Radioligand displacement (Ricerca)", "assay_type": "binding"}},
  "data": [
    {"compound": "Cc1cc(NC(=O)Nc2ccc(F)c(F)c2)n(-c2ccccc2)n1", "note": "[VU0456810, 1-(3,4-difluorophenyl)-3-(3-methyl-1-phenyl-1H-pyrazol-5-yl)urea]", "values": [
      {"measurement": "inhibition at 10 µM", "setting": "[1]", "value": 0, "unit": "%"},
      {"measurement": "inhibition at 10 µM", "setting": "[2]", "value": -2, "unit": "%"},
      {"measurement": "inhibition at 10 µM", "setting": "[3]", "value": 1, "unit": "%"},
      {"measurement": "animals experiencing convulsions from PTZ treatment", "setting": "[4]", "value": "5 out of 8 animals did not experience convulsions and significant decrease"},
      {"measurement": "animals surviving PTZ treatment", "setting": "[4]", "value": "6 out of 8 animals survived and significant increase"},
      {"measurement": "inhibition at 10 µM", "setting": "[5]", "value": 12, "unit": "%"},
      {"measurement": "EC50 Voltage Clamp", "setting": "[6]", "value": "Inactive"},
      {"measurement": "inhibition at 10 µM", "setting": "[7]", "value": -1, "unit": "%"}
    ]}
  ]
}
